In article PMC4792161, “A novel pyrazole derivative protects from ovariectomy-induced osteoporosis through the inhibition of NADPH oxidase” (Scientific Reports, 2016):
Structures can show the parent of a compound that is named as a salt. Marks after values point to notes of the source that are not given here.

How the values were obtained:
[1] = Body weight changes in OVX mice; type: in vivo, ddY mice; conditions: risedronate 2.5 mg/kg; Ewha-18278 2.5, 5, 10 and 20 mg/kg; 28 days
Description: (§1) The study was reviewed and approved by the Institutional Animal Care and Use Committee (IACUC) of Center for Laboratory Animal Sciences, Ewha Industry-University Cooperation Foundation, Ewha Womans University. Experimental methods were carried out in accordance with the approved ethic guidelines in Ewha Industry-University Cooperation Foundation, Ewha Womans University. Beginning 4 weeks after OVX, the female ddY mice received 2.5, 5, 10, or 20 mg/kg of #18–278, 2.5 mg/kg of risedronate, or vehicle once daily for 28 days. The Changes in body weight, bone weight, bone mineral density (BMD), failure load (FL), bone calcium (Ca), inorganic phosphorus (P) contents, histology and histomorphology were monitored. Serum osteocalcin and bone specific alkaline phosphatase (bALP) were monitored in mice receiving Ewha-18278.
R esi dronat e 2. 5mg/kg t reated mi ce […]
D ay after administration (d)
Supplementary Figure S7. Body weight changes in OVX mice. We selected eight mice per group showing more increases of body weights as compared with sham-operated mice and regarded as good OVX animals at four weeks after OVX surgery, consequently, significant increases of body weights were detected in all OVX groups as compared with sham control mice throughout 28 days of […]
mice, in the present study. Values are expressed mean ± S.D. of eight mice. Risedronate sodium was administered at 2.5mg/kg levels. […]

Mature OCs = assay: Bone resorption assay on dentine discs; type: cell-based, C57BL/6 mice; conditions: 10 μM, 24 hours
Description: The cells were removed from the dentine discs and the dentine discs were stained with hematoxylin. Pit areas were photographed under a light microscope and analyzed using Image-Pro Plus version 4.5 software (Media-Cybernetics, Rockville, MD, USA). […]
Scale bar, 500 μm. (C,D) Mature OCs were generated with M-CSF and RANKL, cells were seeded onto dentine discs and further cultured with […]
Cells were stained with hematoxylin for visualization of pit formation (C). The area of resorption pits were measured with Image-Pro Plus 4.5 (D). Scale bar, 500
μm. Data represent mean ± S.D., n.s., not significant. […]

[2] = test system: OVX-induced osteoporotic ddY mice; assay: Right femur BMD by DEXA in OVX mice; type: in vivo; conditions: oral once daily 28 days
[3] = test system: OVX-induced osteoporotic ddY mice; assay: Femur histopathology-histomorphometry in OVX mice; type: in vivo
Description: Risedronate sodium (2.5 mg/kg) served as a reference compound. […] Histopathology and histomorphometrical analyses including trabecular bone volume (BV/TV), trabecular bone number (Tb.N), trabecular bone length (Tb.Le), trabecular bone thickness (Tb.Th), cortical bone thickness (Ct.Th), OC number (N.Oc), bone mineral density (BMD) and bone strength (failure load, FL) were conducted.
as §1
The left side of femur of each mouse was separated and fixed in 10% neutral buffered formalin and decalcified in a solution comprised of 24.4% formic acid and 0.5N sodium hydroxide for 5 days, with spent solution replaced with fresh solution each day. Each sample was embedded in paraffin, sectioned to a thickness of 3–4 μm and exposed to with Hematoxylin & Eosin (H&E) stain. Histomorphometry was conducted as for bone mass and structure with bone resorption in a uniform area of epiphyseal regions of femur (growth plate regions were excluded). Cortical bone thickness was measured in the mid-shaft region of the femur.

glucose oxidase = glucose oxidase (Aspergillus niger, UniProt P13006); assay: Glucose oxidase assay (lucigenin); type: biochemical
Description: Glucose oxidase activity was measured by lucigenin. Reaction mixtures contained 0.75 mM glucose, 0.25 mg/ml glucose oxidase, and 0.4 mM lucigenin with the indicated inhibitor (0–20μM). Luminescence was measured over 30 min at 37 °C with luminometor (DTX800, Beckman coulter).

[4] = Direct ROS (H2O2) scavenging in vitro; conditions: 20 μM compound, 1 mM H2O2
Excerpt: Based on the notion that the differentiation of OCs is mediated by Nox1/2/4-dependent ROS generation, we have performed a high throughput enzyme inhibitor screening assay to identify chemical compounds having Nox1/2/4 inhibitory activity for the development of an anti-osteoporosis agent. Purified Drosophila membranes expressing human Nox1, Nox2, or Nox4 were used to monitor ROS production by determining the oxidation of lucigenin, evident as chemiluminescence, in the absence or presence of chemical compound[18]. A chemical library containing 31,000 compounds was screened to identify Nox inhibitors. […] (Fig. 1B, Supplementary Fig. S2). […] Moreover, we investigated whether Ewha-18278 can directly scavenge ROS in vitro.
Supplementary Figure S3. (A) Ewha-18278 compounds can not directly scavenge superoxide or other reactive species in vitro. ROS (H2O2) measured with lucigenin. Reaction mixtures contained 1 […]
Luminescence measured over 30 min at 37
°C with luminometor (Gloma X luminometor, Turner BioSystem). […]
the phagocytosis of zymosan. […]
incubated with FITC-zymosan particles, and internalized fluorescence was measured by flow cytometry. The data are presented as the MFI of internalized FITC. Data represent mean ± S.D. […]

[5] = 2.5 mg/kg oral once daily 28 days
[6] = 5 mg/kg oral once daily 28 days
[7] = 10 mg/kg oral once daily 28 days
[8] = 20 mg/kg oral once daily 28 days

Sequence of glucose oxidase (P13006 17-605, species assumed): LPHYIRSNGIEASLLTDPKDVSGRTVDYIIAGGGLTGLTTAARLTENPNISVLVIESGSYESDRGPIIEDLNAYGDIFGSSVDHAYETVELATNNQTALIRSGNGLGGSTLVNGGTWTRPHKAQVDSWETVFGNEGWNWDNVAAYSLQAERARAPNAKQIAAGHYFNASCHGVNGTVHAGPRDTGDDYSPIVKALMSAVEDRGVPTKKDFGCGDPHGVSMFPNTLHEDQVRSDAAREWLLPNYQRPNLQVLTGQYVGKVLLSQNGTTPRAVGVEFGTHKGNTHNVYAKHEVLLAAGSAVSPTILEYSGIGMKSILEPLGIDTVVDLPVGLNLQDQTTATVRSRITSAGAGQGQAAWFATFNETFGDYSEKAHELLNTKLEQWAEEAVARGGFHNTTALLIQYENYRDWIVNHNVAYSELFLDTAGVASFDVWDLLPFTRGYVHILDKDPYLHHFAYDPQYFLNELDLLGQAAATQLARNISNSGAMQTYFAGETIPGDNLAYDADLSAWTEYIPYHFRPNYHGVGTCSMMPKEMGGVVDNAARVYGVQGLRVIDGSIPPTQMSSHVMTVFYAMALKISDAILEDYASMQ

## CCCc1c(-c2ccccc2)nn(-c2ccccn2)c1O [Ewha-18278, 3-phenyl-1-(pyridin-2-yl)-4-propyl-1H-5-hydroxypyrazole HCl]
[1]
  body weights as compared with OVX control mice: no meaningful changes
Mature OCs
  bone resorption activity of OCs: did not affect
[2]
  BMD of femur compared to OVX control: dramatic increased BMD
[3]; [5]
  BV/TV (trabecular bone volume): 23.62 ± 3.63 ^a %
  Ct.Th (cortical bone thickness): 136.48 ± 10.32 ^a μm
  N.OC/BS (osteoclast cell number, N/epiphyseal): 13.75 ± 2.25 ^e numbers
  Tb.N (trabecular bone number, N/epiphyseal): 9.75 ± 1.67 ^e numbers
  Tb.Th (trabecular bone thickness): 40.98 ± 5.94 ^a μm
[3]; [6]
  BV/TV (trabecular bone volume): 29.06 ± 2.72 ^ac %
  Ct.Th (cortical bone thickness): 159.04 ± 13.45 ^ac μm
  N.OC/BS (osteoclast cell number, N/epiphyseal): 10.63 ± 2.77 ^eg numbers
  Tb.N (trabecular bone number, N/epiphyseal): 11.25 ± 1.04 ^eh numbers
  Tb.Th (trabecular bone thickness): 52.98 ± 8.96 ^ac μm
[3]; [7]
  BV/TV (trabecular bone volume): 33.63 ± 3.51 ^c %
  Ct.Th (cortical bone thickness): 165.52 ± 12.06 ^ac μm
  N.OC/BS (osteoclast cell number, N/epiphyseal): 6.63 ± 1.30 ^eg numbers
  Tb.N (trabecular bone number, N/epiphyseal): 15.38 ± 1.60 ^eg numbers
  Tb.Th (trabecular bone thickness): 68.14 ± 11.23 ^ac μm
[3]; [8]
  BV/TV (trabecular bone volume): 34.07 ± 3.89 ^c %
  Ct.Th (cortical bone thickness): 198.06 ± 12.51 ^c μm
  N.OC/BS (osteoclast cell number, N/epiphyseal): 5.63 ± 1.41 ^fg numbers
  Tb.N (trabecular bone number, N/epiphyseal): 16.63 ± 1.19 ^eg numbers
  Tb.Th (trabecular bone thickness): 71.98 ± 12.20 ^ac μm
Glucose oxidase
  inhibitory activity on glucose oxidase: no inhibitory activities
[4]
  change in hydrogen peroxide concentration (ROS scavenging): had no effect
